In patent US20200024278A1, “COMPOSITION COMPRISING ANTIBIOTIC COMPOUND AND AN HETEROCYCLIC COMPOUND AND THEIR USE IN PREVENTING OR TREATING BACTERIAL INFECTIONS” (MUTABILIS, priority 2016, published 2020):

How the values were obtained:
Test in all cases: MIC, broth microdilution (CLSI), substance alone or ATB combined with compound at 4 or 8 μg/mL
ECO 190317 = assay type: cell-based, E. coli; conditions: ECO 190317
Summary of the method: (§1)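 Per CLSI-M7-A7, MICs are determined in cation-adjusted Mueller-Hinton broth with a final inoculum of 5·10^5 CFU/mL. Plates incubate 16-20 h at 35° C in air and are read by eye. Fosfomycin assays carry 25 μg/ml glucose-6-phosphate.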

ECO UFR39 = assay type: cell-based, E. coli; conditions: ECO UFR39; for MIC ATB combined with Example compound: compound @4 μg/ml
Summary of the method: as §1

KPN 6299 = assay type: cell-based, K. pneumoniae; conditions: MIC of CIP, compound @4 μg/ml
Summary of the method: as §1

KPN BAA-1898 = assay type: cell-based, K. pneumoniae; conditions: KPN BAA-1898
Summary of the method: as §1

KPN UFR42 = assay type: cell-based, K. pneumoniae; conditions: KPN UFR42; for MIC ATB combined with Example compound: compound @4 μg/ml
Summary of the method: as §1

ECL P99 = assay type: cell-based, E. cloacae; conditions: ECL P99
Summary of the method: as §1

PAE 105250 = assay type: cell-based, P. aeruginosa; conditions: PAE 105250; for MIC ATB combined with compound / MIC ATB combined with Example compound: compound @4 μg/ml
Summary of the method: as §1

PAE UFR48 = assay type: cell-based, P. aeruginosa; conditions: PAE UFR48; for MIC ATB combined with compound / MIC ATB combined with Example compound: compound @4 μg/ml
Summary of the method: as §1

PAE UFR90 = assay type: cell-based, P. aeruginosa; conditions: PAE UFR90; for MIC ATB combined with compound / MIC ATB combined with Example compound: compound @4 μg/ml
Summary of the method: as §1

SAU 29213 = assay type: cell-based, S. aureus; conditions: for MIC ATB combined with compound / MIC ATB combined with Example compound: compound @4 μg/ml, SAU 29213
Summary of the method: as §1

SPN 49619 = assay type: cell-based, S. pneumoniae; conditions: SPN 49619; for MIC ATB combined with compound / MIC ATB combined with Example compound: compound @4 μg/ml
Summary of the method: as §1

ABA 107292 = assay type: cell-based, A. baumannii; conditions: Acinetobacter baumannii, substance alone, read-out: MIC
Summary of the method: as §1

ABA 19606 = assay type: cell-based, A. baumannii; conditions: Acinetobacter baumannii, substance alone, read-out: MIC
Summary of the method: as §1

[1] = Escherichia coli, substance alone, read-out: MIC
[2] = Pseudomonas aeruginosa, substance alone, read-out: MIC

For O=C1N2CC(c3ncco3)=C[C@H](C2)N1OS(=O)(=O)[O-].[Na+] [Example 9, sodium [(5R)-3-(oxazol-2-yl)-7-oxo-1,6-diazabicyclo[3.2.1]oct-3-en-6-yl] sulfate], the MIC (ECO 190317; [1]) was 0.5 µg/mL, the “MIC ATB combined with Example compound” value (ECO 190317; MIC of CIP, compound @4 μg/ml) was under 0.031 µg/mL and the MIC (ECO UFR39; [1]) was 2 µg/mL. For the same molecule, the “MIC ATB combined with Example compound” value (ECO UFR39; MIC of CIP) was under 0.031 µg/mL, the “MIC ATB combined with Example compound” value (ECO UFR39; MIC of CPO) was under 0.031 µg/mL and the “MIC ATB combined with Example compound” value (KPN 6299) was “<=0.031 μg/mL”. The MIC (KPN BAA-1898; Klebsiella pneumoniae, BAA1898, substance alone, read-out: MIC) was 2 µg/mL, the “MIC ATB combined with Example compound” value (KPN BAA-1898; MIC of CIP, compound @4 μg/ml) was under 0.031 µg/mL and the MIC (KPN UFR42; Klebsiella pneumoniae, substance alone, read-out: MIC) was 8 µg/mL. The “MIC ATB combined with Example compound” value (KPN UFR42; MIC of CIP) was under 0.031 µg/mL, the “MIC ATB combined with Example compound” value (KPN UFR42; MIC of CPO) was under 0.031 µg/mL and the MIC (ECL P99; Enterobacter cloacae, substance alone, read-out: MIC) was 2 µg/mL. For the same molecule, the “MIC ATB combined with Example compound” value (ECL P99; MIC of CIP, compound @4 μg/ml) was under 0.031 µg/mL, the “MIC ATB combined with compound” value (PAE 105250; ATB ATM) was 8 µg/mL and the “MIC ATB combined with compound” value (PAE 105250; ATB FEP) was 8 µg/mL. The “MIC ATB combined with compound” value (PAE 105250; ATB FOS) was over 128 µg/mL, the “MIC ATB combined with compound” value (PAE 105250; ATB MEM) was 4 µg/mL and the “MIC ATB combined with compound” value (PAE 105250; ATB PIP) was 32 µg/mL. The “MIC ATB combined with Example compound” value (PAE 105250; MIC of CIP) was 0.125 µg/mL, the “MIC ATB combined with Example compound” value (PAE 105250; MIC of CPO) was 32 µg/mL and the MIC (PAE 105250; [2]) was over 32 µg/mL. The “MIC ATB combined with compound” value (PAE UFR48; ATB ATM) was 128 µg/mL, the “MIC ATB combined with compound” value (PAE UFR48; ATB FEP) was 32 µg/mL and the “MIC ATB combined with compound” value (PAE UFR48; ATB FOS) was 32 µg/mL. The “MIC ATB combined with compound” value (PAE UFR48; ATB MEM) was 2 µg/mL, the “MIC ATB combined with compound” value (PAE UFR48; ATB PIP) was 32 µg/mL and the “MIC ATB combined with Example compound” value (PAE UFR48; MIC of CIP) was 4 µg/mL. For the same molecule, the “MIC ATB combined with Example compound” value (PAE UFR48; MIC of CPO) was over 32 µg/mL, the MIC (PAE UFR48; [2]) was 128 µg/mL and the “MIC ATB combined with compound” value (PAE UFR90; ATB ATM) was 128 µg/mL. The “MIC ATB combined with compound” value (PAE UFR90; ATB FEP) was 4 µg/mL, the “MIC ATB combined with compound” value (PAE UFR90; ATB FOS) was 4 µg/mL and the “MIC ATB combined with compound” value (PAE UFR90; ATB MEM) was 1 µg/mL. For the same molecule, the “MIC ATB combined with compound” value (PAE UFR90; ATB PIP) was 16 µg/mL, the “MIC ATB combined with Example compound” value (PAE UFR90; MIC of CIP) was 1 µg/mL and the “MIC ATB combined with Example compound” value (PAE UFR90; MIC of CPO) was 8 µg/mL. For the same molecule, the MIC (PAE UFR90; [2]) was over 128 µg/mL, the “MIC ATB combined with compound” value (SAU 29213; ATB ATM) was “<=0.031 μg/mL” and the “MIC ATB combined with compound” value (SAU 29213; ATB FEP) was under 0.031 µg/mL. The “MIC ATB combined with compound” value (SAU 29213; ATB FOS) was under 0.125 µg/mL, the “MIC ATB combined with compound” value (SAU 29213; ATB MEM) was under 0.031 µg/mL and the “MIC ATB combined with compound” value (SAU 29213; ATB PIP) was under 0.031 µg/mL. For the same molecule, the “MIC ATB combined with Example compound” value (SAU 29213; MIC of CIP) was under 0.031 µg/mL, the “MIC ATB combined with Example compound” value (SAU 29213; MIC of CLI) was under 0.0010 µg/mL and the “MIC ATB combined with Example compound” value (SAU 29213; MIC of CPO) was under 0.031 µg/mL. For the same molecule, the “MIC ATB combined with Example compound” value (SAU 29213; MIC of DAP) was under 0.0020 µg/mL, the “MIC ATB combined with Example compound” value (SAU 29213; MIC of ERY) was “<=0.0020 μg/mL” and the “MIC ATB combined with Example compound” value (SAU 29213; MIC of LZD) was under 0.0078 µg/mL. For the same molecule, the “MIC ATB combined with Example compound” value (SAU 29213; MIC of RIF) was 0.002 µg/mL, the “MIC ATB combined with Example compound” value (SAU 29213; MIC of SYN) was 0.0039 µg/mL and the “MIC ATB combined with Example compound” value (SAU 29213; MIC of VAN) was under 0.0039 µg/mL. For the same molecule, the MIC (SAU 29213; Staphylococcus aureus, substance alone, SAU 29213 (MSSA 29213), read-out: MIC) was 8 µg/mL, the “MIC ATB combined with compound” value (SPN 49619; ATB ATM) was under 0.031 µg/mL and the “MIC ATB combined with compound” value (SPN 49619; ATB FEP) was “<=0.031 μg/mL”. For the same molecule, the “MIC ATB combined with compound” value (SPN 49619; ATB FOS) was 4 µg/mL, the “MIC ATB combined with compound” value (SPN 49619; ATB MEM) was “<=0.031 μg/mL” and the “MIC ATB combined with compound” value (SPN 49619; ATB PIP) was under 0.031 µg/mL. For the same molecule, the “MIC ATB combined with Example compound” value (SPN 49619; MIC of CIP) was 0.25 µg/mL, the “MIC ATB combined with Example compound” value (SPN 49619; MIC of CLI) was 0.0039 µg/mL and the “MIC ATB combined with Example compound” value (SPN 49619; MIC of CPO) was “<=0.031 μg/mL”. The “MIC ATB combined with Example compound” value (SPN 49619; MIC of DAP) was under 0.0020 µg/mL, the “MIC ATB combined with Example compound” value (SPN 49619; MIC of ERY) was under 0.0020 µg/mL and the “MIC ATB combined with Example compound” value (SPN 49619; MIC of LZD) was “<=0.0078 μg/mL”. The “MIC ATB combined with Example compound” value (SPN 49619; MIC of RIF) was 0.00024 µg/mL, the “MIC ATB combined with Example compound” value (SPN 49619; MIC of SYN) was “<=0.0020 μg/mL” and the “MIC ATB combined with Example compound” value (SPN 49619; MIC of VAN) was under 0.0039 µg/mL. The MIC (SPN 49619; Streptococcus pneumoniae, substance alone, read-out: MIC) was 8 µg/mL, the MIC (ABA 107292) was over 32 µg/mL and the MIC (ABA 19606) was over 32 µg/mL.
